Laboratory results taken from patent US20230233569A1 (Revolution Medicines, Inc., priority 2020, published 2023).

Assays:
KRAS G12V = KRAS G12V (Homo sapiens, UniProt P01116+P62937, G12V); assay: Disruption of BRAF RBD interaction with Ras (FRET / MOA assay, with Cyclophilin A); format: biochemical; conditions: KRAS G12V; read-out: KRAS G12V FRET data IC50
Procedure, shortened: (§1)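 IC50 values reflect loss of K-Ras binding to BRAF RBD, read as a lowered TR-FRET ratio compared with DMSO, driven by compound-mediated K-Ras:Cyclophilin A complex formation. Compound top dose 30 μM final, 3-fold steps, 3 h incubation at 25 °C before a 1.5 h antibody step.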

KRAS G12D = KRAS G12D (Homo sapiens, UniProt P01116+P62937, G12D); assay: as above; format: biochemical; conditions: read-out: KRAS G12D FRET data, IC50
Procedure, shortened: as §1

KRAS G12S = KRAS G12S (Homo sapiens, UniProt P01116+P62937, G12S); assay: as above; format: biochemical; conditions: read-out: KRAS G12S FRET data, IC50
Procedure, shortened: as §1

KRAS G13D = KRAS G13D (Homo sapiens, UniProt P01116+P62937, G13D); assay: as above; format: biochemical; conditions: KRAS G13D; read-out: KRAS G13D FRET data IC50
Procedure, shortened: as §1

KRAS G12C = KRAS G12C (Homo sapiens, UniProt P01116+P62937, G12C); assay: as above; format: biochemical; conditions: read-out: KRAS G12C FRET data, IC50
Procedure, shortened: as §1

KRAS WT = KRAS WT (Homo sapiens, UniProt P01116+P62937); assay: as above; format: biochemical; conditions: KRAS WT; read-out: KRAS WT FRET data IC50
Procedure, shortened: as §1

NRAS G12C = NRAS G12C (Homo sapiens, UniProt P01111+P62937, G12C); assay: as above; format: biochemical; conditions: NRAS G12C; read-out: NRAS G12C FRET data IC50
KRAS G13C = KRAS G13C (Homo sapiens, UniProt P01116+P62937, G13C); assay: as above; format: biochemical; conditions: read-out: KRAS G13C FRET data, IC50
Procedure, shortened: as §1

KRAS Q61H = KRAS Q61H (Homo sapiens, UniProt P01116+P62937, Q61H); assay: as above; format: biochemical; conditions: KRAS Q61H; read-out: KRAS Q61H FRET data IC50
Procedure, shortened: (§2)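 TR-FRET in 25 mM HEPES pH 7.3, 100 mM NaCl, 5 mM MgCl2, 0.1% BSA: 25 μM Cyclophilin A, 12.5 nM His6-Ras-GMPPNP, 50 nM GST-BRAF RBD with compound (10-point 3-fold series from 30 μM), 3 h at 25° C. Anti-His Eu/anti-GST APC added, 1.5 h more; IC50 from decreased FRET ratio versus DMSO.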

NRAS Q61R = NRAS Q61R (Homo sapiens, UniProt P01111+P62937, Q61R); assay: as above; format: biochemical; conditions: NRAS Q61R; read-out: NRAS Q61R FRET data IC50
Procedure, shortened: as §2

NRAS WT = NRAS WT (Homo sapiens, UniProt P01111+P62937); assay: as above; format: biochemical; conditions: NRAS WT; read-out: NRAS WT FRET data IC50
Procedure, shortened: as §2

NRAS Q61K = NRAS Q61K (Homo sapiens, UniProt P01111+P62937, Q61K); assay: as above; format: biochemical; conditions: NRAS Q61K; read-out: NRAS Q61K FRET data IC50
Procedure, shortened: as §2

Capan-1 (K-Ras G12V) = assay: CellTiter-Glo cell viability assay, 5-day treatment; format: cell-based; conditions: Homo sapiens, CAPAN-1, 120 h, 5-day treatment; read-out: Capan-1 Cell Viability assay data (K-Ras G12V, IC50)
Procedure, shortened: (§3)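 Viability is read as luminescence on day 5 after direct compound addition to plated cells, following about 30 minutes' room-temperature equilibration. Each signal is scaled to mean DMSO as 100%.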

NCI-H358 (K-Ras G12C) = assay: as above; format: cell-based; conditions: Homo sapiens, NCI-H358, 120 h, 5-day treatment; read-out: H358 Cell Viability assay data (K-Ras G12C, IC50)
Procedure, shortened: as §3

Sequence of KRAS G13C (P01116 1-169 isoform P01116-2 G13C): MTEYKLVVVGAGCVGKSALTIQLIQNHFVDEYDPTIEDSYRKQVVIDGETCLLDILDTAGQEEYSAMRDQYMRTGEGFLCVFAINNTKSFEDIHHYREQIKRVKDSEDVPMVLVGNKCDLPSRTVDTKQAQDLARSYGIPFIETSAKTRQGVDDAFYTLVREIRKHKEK
Sequence of KRAS G13C (P62937 whole entry): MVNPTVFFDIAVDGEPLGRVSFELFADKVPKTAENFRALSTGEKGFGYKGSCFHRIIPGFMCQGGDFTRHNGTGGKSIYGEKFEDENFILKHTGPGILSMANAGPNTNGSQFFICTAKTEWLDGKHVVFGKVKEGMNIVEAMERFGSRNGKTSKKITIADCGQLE
Sequence of KRAS WT (P01116 1-169 isoform P01116-2 limits assumed): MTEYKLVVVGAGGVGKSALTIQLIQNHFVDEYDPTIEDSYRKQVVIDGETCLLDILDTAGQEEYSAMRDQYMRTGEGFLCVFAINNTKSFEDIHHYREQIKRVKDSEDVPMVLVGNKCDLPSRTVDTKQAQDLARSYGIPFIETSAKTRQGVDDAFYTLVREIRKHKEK
Sequence of KRAS WT (P62937 whole entry): as the sequence (P62937 whole entry) above
Sequence of KRAS Q61H (P01116 1-169 isoform P01116-2 Q61H limits assumed): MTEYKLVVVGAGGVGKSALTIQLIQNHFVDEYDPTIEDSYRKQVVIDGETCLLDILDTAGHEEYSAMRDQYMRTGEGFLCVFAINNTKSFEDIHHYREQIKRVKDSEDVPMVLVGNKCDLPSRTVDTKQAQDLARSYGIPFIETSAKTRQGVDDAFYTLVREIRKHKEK
Sequence of KRAS Q61H (P62937 whole entry): as the sequence (P62937 whole entry) above
Sequence of NRAS Q61K (P01111 whole entry Q61K): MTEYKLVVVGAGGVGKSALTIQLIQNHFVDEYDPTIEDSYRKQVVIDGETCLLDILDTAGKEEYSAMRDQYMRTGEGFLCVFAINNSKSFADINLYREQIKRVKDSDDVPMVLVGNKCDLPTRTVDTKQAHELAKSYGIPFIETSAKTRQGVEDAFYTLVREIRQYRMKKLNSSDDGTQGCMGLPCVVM
Sequence of NRAS Q61K (P62937 whole entry): as the sequence (P62937 whole entry) above
Sequence of KRAS G12C (P01116 1-169 isoform P01116-2 G12C): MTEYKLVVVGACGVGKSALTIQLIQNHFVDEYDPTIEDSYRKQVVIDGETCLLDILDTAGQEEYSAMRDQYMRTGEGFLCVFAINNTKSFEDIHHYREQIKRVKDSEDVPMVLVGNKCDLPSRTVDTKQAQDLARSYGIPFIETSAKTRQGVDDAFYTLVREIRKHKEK
Sequence of KRAS G12C (P62937 whole entry): as the sequence (P62937 whole entry) above
Sequence of NRAS Q61R (P01111 whole entry Q61R): as the sequence (P01111 whole entry Q61K) above, with K61R counted along it
Sequence of NRAS Q61R (P62937 whole entry): as the sequence (P62937 whole entry) above
Sequence of KRAS G13D (P01116 1-169 isoform P01116-2 G13D limits assumed): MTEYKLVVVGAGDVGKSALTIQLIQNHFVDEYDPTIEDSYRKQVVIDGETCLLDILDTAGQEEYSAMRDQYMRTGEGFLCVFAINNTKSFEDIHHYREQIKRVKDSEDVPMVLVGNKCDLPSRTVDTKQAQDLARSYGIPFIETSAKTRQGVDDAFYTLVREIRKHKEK
Sequence of KRAS G13D (P62937 whole entry): as the sequence (P62937 whole entry) above
Sequence of KRAS G12D (P01116 1-169 isoform P01116-2 G12D limits assumed): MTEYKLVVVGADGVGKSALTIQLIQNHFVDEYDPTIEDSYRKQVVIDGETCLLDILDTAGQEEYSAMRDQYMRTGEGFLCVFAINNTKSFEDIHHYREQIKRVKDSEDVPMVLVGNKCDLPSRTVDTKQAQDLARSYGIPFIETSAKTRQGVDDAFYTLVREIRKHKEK
Sequence of KRAS G12D (P62937 whole entry): as the sequence (P62937 whole entry) above
Sequence of KRAS G12S (P01116 1-169 isoform P01116-2 G12S limits assumed): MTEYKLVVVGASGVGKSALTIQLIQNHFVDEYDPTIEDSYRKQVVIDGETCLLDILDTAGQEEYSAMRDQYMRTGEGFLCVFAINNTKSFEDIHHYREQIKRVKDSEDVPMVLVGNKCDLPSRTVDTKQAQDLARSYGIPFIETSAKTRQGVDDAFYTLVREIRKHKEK
Sequence of KRAS G12S (P62937 whole entry): as the sequence (P62937 whole entry) above
Sequence of NRAS WT (P01111 whole entry): as the sequence (P01111 whole entry Q61K) above, with K61Q counted along it
Sequence of NRAS WT (P62937 whole entry): as the sequence (P62937 whole entry) above
Sequence of NRAS G12C (P01111 whole entry G12C): as the sequence (P01111 whole entry Q61K) above, with G12C, K61Q counted along it
Sequence of NRAS G12C (P62937 whole entry): as the sequence (P62937 whole entry) above
Sequence of KRAS G12V (P01116 1-169 isoform P01116-2 G12V limits assumed): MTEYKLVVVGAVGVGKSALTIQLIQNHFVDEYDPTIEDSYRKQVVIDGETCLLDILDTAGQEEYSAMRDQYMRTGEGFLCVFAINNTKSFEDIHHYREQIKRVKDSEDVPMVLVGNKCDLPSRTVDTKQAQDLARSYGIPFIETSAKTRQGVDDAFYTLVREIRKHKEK
Sequence of KRAS G12V (P62937 whole entry): as the sequence (P62937 whole entry) above

Row | Compound | IC50 (KRAS G12V) | IC50 (KRAS G12D) | IC50 (KRAS G12S) | IC50 (KRAS G13D) | IC50 (KRAS G12C) | IC50 (KRAS WT) | IC50 (NRAS G12C) | IC50 (KRAS G13C) | IC50 (KRAS Q61H) | IC50 (NRAS Q61R) | IC50 (NRAS WT) | IC50 (NRAS Q61K) | IC50 (NCI-H358 (K-Ras G12C)) | IC50 (Capan-1 (K-Ras G12V))
1 | CCn1c(-c2cccnc2[C@H](C)OC)c2c3cc(ccc31)-c1csc(n1)C[C@H](NC(=O)[C@H](C(C)C)N(C)C(=O)N1CC3(CCCO3)C1)C(=O)N1CCC[C@H](N1)C(=O)OCC(C)(C)C2 (atropisomer, axis not shown) [Example A522] | 100 to 1000 nM | 1000 to 10000 nM | 100 to 1000 nM | 1000 to 10000 nM | 100 to 1000 nM | 100 to 1000 nM | 100 to 1000 nM | 100 to 1000 nM | 100 to 1000 nM | 100 to 1000 nM | 100 to 1000 nM | 10 to 100 nM | 10 to 100 nM | 100 to 1000 nM
2 | CCn1c(-c2cccnc2[C@H](C)OC)c2c3cc(ccc31)-c1csc(n1)C[C@H](NC(=O)[C@H](C(C)C)N(C)C(=O)N1CC3(CC3)C1)C(=O)N1CCC[C@H](N1)C(=O)OCC(C)(C)C2 (atropisomer, axis not shown) [Example A523] | 100 to 1000 nM | 100 to 1000 nM | 100 to 1000 nM | 100 to 1000 nM | 10 to 100 nM | 100 to 1000 nM | 10 to 100 nM | 100 to 1000 nM | 10 to 100 nM | 100 to 1000 nM | 100 to 1000 nM | 10 to 100 nM | 10 to 100 nM | 10 to 100 nM
3 | CCn1c(-c2cccnc2[C@H](C)OC)c2c3cc(ccc31)-c1csc(n1)C[C@H](NC(=O)[C@H](C(C)C)N(C)C(=O)N1CCCC13COC3)C(=O)N1CCC[C@H](N1)C(=O)OCC(C)(C)C2 (atropisomer, axis not shown) [Example A528] | 100 to 1000 nM | 100 to 1000 nM | 100 to 1000 nM | 100 to 1000 nM | 10 to 100 nM | 10 to 100 nM | 10 to 100 nM | 100 to 1000 nM | 10 to 100 nM | 10 to 100 nM | 10 to 100 nM | 10 to 100 nM | 10 to 100 nM | 10 to 100 nM

More lines, main results first:

Row | IC50 (KRAS G12V) | IC50 (KRAS G12D) | IC50 (KRAS G12S) | IC50 (KRAS G13D) | IC50 (KRAS G12C) | IC50 (KRAS WT) | IC50 (NRAS G12C) | IC50 (KRAS G13C) | IC50 (KRAS Q61H) | IC50 (NRAS Q61R) | IC50 (NRAS WT) | IC50 (NRAS Q61K) | IC50 (NCI-H358 (K-Ras G12C)) | Compound | IC50 (Capan-1 (K-Ras G12V))
4 | 10 to 100 nM | 100 to 1000 nM | 10 to 100 nM | 100 to 1000 nM | 10 to 100 nM | 10 to 100 nM | 10 to 100 nM | 10 to 100 nM | 10 to 100 nM | 10 to 100 nM | 10 to 100 nM | 10 to 100 nM | < 10 nM | CCn1c(-c2cc(N3CCN(C)CC3)cnc2[C@H](C)OC)c2c3cc(ccc31)-c1csc(n1)C[C@H](NC(=O)[C@H](C1CCCC1)N(C)C(=O)N(C)C)C(=O)N1CCC[C@H](N1)C(=O)OCC(C)(C)C2 (atropisomer, axis not shown) [Example A526] | < 10 nM
5 | 10 to 100 nM | 100 to 1000 nM | 10 to 100 nM | 10 to 100 nM | 10 to 100 nM | 10 to 100 nM | 10 to 100 nM | 10 to 100 nM | 10 to 100 nM | 10 to 100 nM | 10 to 100 nM | 10 to 100 nM | < 10 nM | CCn1c(-c2cc(N3CCN(C)CC3)cnc2[C@H](C)OC)c2c3cc(ccc31)-c1csc(n1)C[C@H](NC(=O)[C@H](C1CCCC1)N(C)C(=O)N1CCC1)C(=O)N1CCC[C@H](N1)C(=O)OCC(C)(C)C2 (atropisomer, axis not shown) [Example A529] | < 10 nM
6 | 100 to 1000 nM | 100 to 1000 nM | 100 to 1000 nM | 100 to 1000 nM | 100 to 1000 nM | 100 to 1000 nM | 10 to 100 nM | 100 to 1000 nM | 10 to 100 nM | 100 to 1000 nM | 10 to 100 nM | 10 to 100 nM | 10 to 100 nM | CCn1c(-c2cccnc2[C@H](C)OC)c2c3cc(ccc31)-c1csc(n1)C[C@H](NC(=O)[C@H](C(C)C)N(C)C(=O)N1CCC[C@@H](N(C)C)C1)C(=O)N1CCC[C@H](N1)C(=O)OCC(C)(C)C2 (atropisomer, axis not shown) [Example A531] | 10 to 100 nM
